This note sets out measurements from patent US7326732B2, “EP2 receptor agonists” (Pharmagene Laboratories Limited, priority 2004, dated 2008).

One test has as its target T1, human EP2 receptor (Homo sapiens, UniProt P43116).
T1 construct: expressed in transfected cells
The test is described as follows: Binding ability to human EP receptors ([3H]PGE2 displacement), EP2. The conditions noted are these: membranes expressing human EP2; [3H]PGE2 3 nM; Cheng-Prusoff; read-out: pKi (M) EP2 (converted). A digest of the protocol: (§1)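 Membranes from cells stably expressing human EP2, EP3 or EP4 incubated to equilibrium with [3H]PGE2 and compound at 0.1 to 10 000 nM. Non-specific binding defined with 10 uM PGE2; bound label separated by vacuum filtration and quantified by scintillation counting.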

In a further test the target is T2, human EP4 receptor (Homo sapiens, UniProt P35408).
T2 construct: expressed in transfected cells
As to the kind of experiment: Binding ability to human EP receptors ([3H]PGE2 displacement), EP4. The conditions noted are these: membranes expressing human EP4; [3H]PGE2 1 nM; Cheng-Prusoff; read-out: pKi (M) EP4 (converted). A digest of the protocol: as §1

The next test has as its target T3, human EP3 receptor (Homo sapiens, UniProt P43115).
T3 construct: expressed in transfected cells
T3 sequence (P43115 1-390): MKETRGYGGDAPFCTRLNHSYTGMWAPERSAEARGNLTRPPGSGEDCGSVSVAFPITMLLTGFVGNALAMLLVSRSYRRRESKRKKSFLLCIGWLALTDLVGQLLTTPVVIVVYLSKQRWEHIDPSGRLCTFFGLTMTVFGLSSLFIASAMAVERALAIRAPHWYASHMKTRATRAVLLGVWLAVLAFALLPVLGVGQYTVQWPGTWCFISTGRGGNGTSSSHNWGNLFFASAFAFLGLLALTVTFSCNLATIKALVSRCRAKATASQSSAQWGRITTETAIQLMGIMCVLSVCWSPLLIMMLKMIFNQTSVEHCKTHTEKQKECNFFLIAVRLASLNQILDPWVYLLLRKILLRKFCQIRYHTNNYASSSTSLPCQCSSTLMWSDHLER
The test is described as follows: Binding ability to human EP receptors ([3H]PGE2 displacement), EP3. The conditions noted are these: membranes expressing human EP3; [3H]PGE2 2.5 nM; Cheng-Prusoff; read-out: pKi (M) EP3 (converted). A digest of the protocol:
as §1

Test [1] addresses T4, human EP2 prostanoid receptors (Homo sapiens, UniProt P43116).
T4 construct: expressed in transfected cells; host or cells: HEK-293
The test is described as follows: Agonist activity at recombinant human EP2 prostanoid receptors (cAMP in HEK-293 clones). Format: cell-based. Particulars: for EC50: HEK-293 stably transfected with human EP2, cAMP accumulation, read-out: pEC50 EP2 (converted); for activity (EP2 part): functional classification at EP2. On the technique in general: Changes in cAMP serve as a functional read-out for many G protein-coupled receptors.

Molecules are shown by their SMILES.

T4 sequence (P43116 whole entry): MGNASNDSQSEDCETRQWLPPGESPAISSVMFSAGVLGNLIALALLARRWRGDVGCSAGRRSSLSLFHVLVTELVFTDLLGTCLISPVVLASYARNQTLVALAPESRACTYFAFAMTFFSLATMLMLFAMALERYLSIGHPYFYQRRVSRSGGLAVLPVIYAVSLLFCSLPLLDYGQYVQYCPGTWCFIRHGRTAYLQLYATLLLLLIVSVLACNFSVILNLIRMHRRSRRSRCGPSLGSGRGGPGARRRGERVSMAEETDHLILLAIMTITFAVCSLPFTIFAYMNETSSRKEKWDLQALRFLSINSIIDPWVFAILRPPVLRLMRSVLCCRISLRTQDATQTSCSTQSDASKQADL
T1 sequence (P43116 whole entry): as above
T2 sequence (P35408 whole entry): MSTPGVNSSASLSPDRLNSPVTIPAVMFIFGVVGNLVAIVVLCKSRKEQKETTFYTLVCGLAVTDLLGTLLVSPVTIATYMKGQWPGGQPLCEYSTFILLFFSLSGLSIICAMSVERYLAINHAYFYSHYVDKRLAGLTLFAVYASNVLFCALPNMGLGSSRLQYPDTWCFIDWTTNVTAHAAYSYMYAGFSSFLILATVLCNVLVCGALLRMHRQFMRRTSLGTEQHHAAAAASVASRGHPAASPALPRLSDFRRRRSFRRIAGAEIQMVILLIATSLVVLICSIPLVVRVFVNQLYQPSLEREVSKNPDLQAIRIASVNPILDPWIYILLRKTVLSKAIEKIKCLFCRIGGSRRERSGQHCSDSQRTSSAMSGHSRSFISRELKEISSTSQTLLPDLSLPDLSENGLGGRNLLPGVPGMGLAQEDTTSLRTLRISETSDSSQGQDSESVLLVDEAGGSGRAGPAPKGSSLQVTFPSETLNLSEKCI

`O=C(Nc1cccc(Cc2nnn[nH]2)c1)c1ccc(-c2cccc(Cl)c2)o1` [Compound 81, 5-(3-Chloro-phenyl)-furan-2-carboxylic acid [3-(1H-tetrazol-5-ylmethyl)-phenyl]-amide]: the Ki on human EP2 receptor was < 1e-07 M; on human EP4 receptor, > 1e-05 M; on human EP3 receptor it was > 1e-05 M. Further, the EC50 in test [1] was < 0.1 µM. The “activity (EP2 part)” value in test [1] is given as “EP2 Agonist”.
On to `O=C(Nc1cccc(Cc2nnn[nH]2)c1)c1ccc(-c2cc(Cl)cc(Cl)c2)o1` [Compound 82, 5-(3,5-Dichloro-phenyl)-furan-2-carboxylic acid [3-(1H-tetrazol-5-ylmethyl)-phenyl]-amide], for which the Ki on human EP2 receptor is < 1e-07 M; on human EP4 receptor, > 1e-05 M; at human EP3 receptor, > 1e-05 M. For the same molecule, the EC50 in test [1] was < 0.1 µM. Also, the “activity (EP2 part)” value in test [1] is listed as “EP2 Agonist”.
Consider `O=C(Nc1cccc(Cc2nnn[nH]2)c1)c1ccc(-c2ccc(F)cc2)o1` [Compound 85, 5-(4-Fluoro-phenyl)-furan-2-carboxylic acid [3-(1H-tetrazol-5-ylmethyl)-phenyl]-amide], for which the values for the Ki on human EP2 receptor, at human EP4 receptor and on human EP3 receptor were < 1e-07 M, > 1e-05 M and > 1e-05 M, respectively. The EC50 in test [1] was < 0.1 µM. The “activity (EP2 part)” value in test [1] is “EP2 Agonist”.
For `O=C(Nc1cccc(Cc2nnn[nH]2)c1)c1ccc(-c2ccc(Cl)cc2)o1` [Compound 87, 5-(4-Chloro-phenyl)-furan-2-carboxylic acid [3-(1H-tetrazol-5-ylmethyl)-phenyl]-amide], the results for the Ki on human EP2 receptor, at human EP4 receptor and at human EP3 receptor were < 1e-07 M, > 1e-05 M and > 1e-05 M, respectively. Moreover, the EC50 in test [1] is < 0.1 µM. The “activity (EP2 part)” value in test [1] is reported as “EP2 Agonist”.
Consider `O=C(Nc1cccc(/C=C/c2nnn[nH]2)c1)c1ccc(-c2ccccc2)o1` [Compound 89, 5-Phenyl-furan-2-carboxylic acid {3-[2-(1H-tetrazol-5-yl)-vinyl]-phenyl}-amide], for which the Ki is < 1e-07 M at human EP2 receptor, > 1e-05 M at human EP4 receptor and > 1e-05 M on human EP3 receptor. Further, in test [1], the EC50 is < 0.1 µM. The “activity (EP2 part)” value in test [1] is listed as “EP2 Agonist”.
On to `O=C(Nc1cccc(/C=C/c2nnn[nH]2)c1)c1ccc(-c2cccc(Cl)c2)o1` [Compound 90, 5-(3-Chloro-phenyl)-furan-2-carboxylic acid {3-[2-(1H-tetrazol-5-yl)-vinyl]-phenyl}-amide], for which the Ki on human EP2 receptor is < 1e-07 M; at human EP4 receptor, > 1e-05 M; at human EP3 receptor, > 1e-05 M. In addition, in test [1], the EC50 was < 0.1 µM. In addition, the “activity (EP2 part)” value in test [1] is on record as “EP2 Agonist”.
Consider `O=C(Nc1cccc(Cc2nnn[nH]2)c1)c1cccc(-c2ccccc2)n1` [Compound 92, 6-Phenyl-pyridine-2-carboxylic acid [3-(1H-tetrazol-5-ylmethyl)-phenyl]-amide], for which the Ki was < 1e-06 M on human EP2 receptor, > 1e-05 M at human EP4 receptor and > 1e-05 M at human EP3 receptor. In addition, the EC50 in test [1] was < 0.1 µM. The “activity (EP2 part)” value in test [1] was “EP2 Agonist”.
Regarding `O=C(Nc1cccc(Cc2nnn[nH]2)c1)c1cccc(-c2ccc(F)cc2)n1` [Compound 93, 6-(4-Fluoro-phenyl)-pyridine-2-carboxylic acid [3-(1H-tetrazol-5ylmethyl)-phenyl]-amide], the figures for the Ki at human EP2 receptor, on human EP4 receptor and on human EP3 receptor were < 1e-07 M, > 1e-05 M and > 1e-05 M, respectively. Besides, in test [1], the EC50 was < 0.1 µM. Besides, the “activity (EP2 part)” value in test [1] is listed as “EP2 Agonist”.
In the case of `O=C(Nc1cccc(Cc2nnn[nH]2)c1)c1cccc(-c2cccc(F)c2)n1` [Compound 94, 6-(3-Fluoro-phenyl)-pyridine-2-carboxylic acid [3-(1H-tetrazol-5ylmethyl)-phenyl]-amide], the Ki was < 1e-07 M on human EP2 receptor, > 1e-05 M at human EP4 receptor and > 1e-05 M on human EP3 receptor. For the same molecule, the EC50 in test [1] is < 0.1 µM. The “activity (EP2 part)” value in test [1] was “EP2 Agonist”.
Take `O=C(Nc1cccc(Cc2nnn[nH]2)c1)c1cccc(-c2ccc(Cl)cc2)n1` [Compound 95, 6-(4-Chloro-phenyl)-pyridine-2-carboxylic acid [3-(1H-tetrazol-5ylmethyl)-phenyl]-amide]: the Ki at human EP2 receptor is < 1e-07 M; on human EP4 receptor it was > 1e-05 M; at human EP3 receptor, > 1e-05 M. In test [1], the EC50 is < 0.1 µM. In addition, the “activity (EP2 part)” value in test [1] is “EP2 Agonist”.
As to `O=C(Nc1ccc2sc(C(=O)O)cc2c1)c1ccc(-c2ccccc2)o1` [Compound 97, 5-[(5-Phenyl-furan-2-carbonyl)-amino]-benzo[b]thiophene-2-carboxylic acid], the Ki on human EP2 receptor was < 1e-06 M; on human EP4 receptor, > 1e-05 M; at human EP3 receptor, > 1e-05 M. In test [1], the EC50 was < 1 µM. The “activity (EP2 part)” value in test [1] is given as “EP2 Agonist”.
For the molecule `CC/C(=C\c1cccc(NC(=O)c2ccc(-c3ccccc3)o2)c1)C(=O)O` [Compound 98, 2-{3-[(5-Phenyl-furan-2-carbonyl)-amino]-benzylidene}-butyric acid], the results for the Ki at human EP2 receptor, at human EP4 receptor and on human EP3 receptor were < 1e-06 M, > 1e-05 M and > 1e-05 M, respectively. Moreover, the EC50 in test [1] was < 1 µM. Further, in test [1], the “activity (EP2 part)” value is recorded as “EP2 Agonist”.
Consider `O=C(O)/C=C/c1cccc(NC(=O)c2ccc(-c3cccc(F)c3)o2)c1` [Compound 100, 3-(3-{[5-(3-Fluoro-phenyl)-furan-2-carbonyl]-amino}-phenyl)-acrylic acid], for which the Ki at human EP2 receptor was < 1e-07 M; on human EP4 receptor, < 1e-05 M; on human EP3 receptor, > 1e-05 M. The EC50 in test [1] is < 0.1 µM. Besides, the “activity (EP2 part)” value in test [1] is “EP2 Agonist”.
The like results for `O=C(O)/C=C/c1cccc(NC(=O)c2ccc(-c3ccc4c(c3)OCO4)o2)c1` [Compound 101, 3-{3-[(5-Benzo[1,3]dioxol-5-yl-furan-2-carbonyl)-amino]-phenyl}-acrylic acid] were, in that order, < 1e-07 M, > 1e-05 M, > 1e-05 M, < 0.1 µM and “EP2 Agonist”.
In the case of `O=C(O)/C=C/c1cccc(NC(=O)c2cc(-c3ccccc3)ccc2F)c1` [Compound 107, 3-{3-[(4-Fluoro-biphenyl-3-carbonyl)-amino]-phenyl}-acrylic acid], the Ki was < 1e-07 M on human EP2 receptor, > 1e-05 M on human EP4 receptor and > 1e-05 M at human EP3 receptor. In addition, in test [1], the EC50 was < 0.1 µM. For the same molecule, the “activity (EP2 part)” value in test [1] is listed as “EP2 Agonist”.
Turning to `O=C(O)/C=C/c1cccc(NC(=O)c2cc(-c3cccc(F)c3)ccc2F)c1` [Compound 108, 3-{3-[(4,3′-Difluoro-biphenyl-3-carbonyl)-amino]-phenyl}-acrylic acid], the Ki at human EP2 receptor was < 1e-07 M; on human EP4 receptor, > 1e-05 M; on human EP3 receptor, > 1e-05 M. In test [1], the EC50 was < 0.1 µM. Also, the “activity (EP2 part)” value in test [1] was “EP2 Agonist”.
For `O=C(O)/C=C/c1cccc(NC(=O)c2cccc(-c3cccc(F)c3)n2)c1` [Compound 110, 3-(3-{[6-(3-Fluoro-phenyl)-pyridine-2-carbonyl]-amino}-phenyl)-acrylic acid], the results for the Ki at human EP2 receptor, on human EP4 receptor and at human EP3 receptor were < 1e-07 M, > 1e-05 M and > 1e-05 M, respectively. The EC50 in test [1] was < 0.1 µM. The “activity (EP2 part)” value in test [1] is recorded as “EP2 Agonist”.
With `O=C(O)Cc1cccc(NC(=O)c2cc(-c3cccc(F)c3)ccc2F)c1` [Compound 111], the Ki at human EP2 receptor is < 1e-07 M; at human EP4 receptor, > 1e-05 M; at human EP3 receptor, > 1e-05 M. For the same molecule, the EC50 in test [1] was < 0.1 µM. Moreover, the “activity (EP2 part)” value in test [1] was “EP2 Agonist”.
Regarding `O=C(O)/C=C/c1cccc(NC(=O)c2cc(-c3ccc(F)cc3)ccc2F)c1` [Compound 112, 3-{3-[(4,4′-Difluoro-biphenyl-3-carbonyl)-amino]-phenyl}-acrylic acid], the Ki on human EP2 receptor is < 1e-07 M; on human EP4 receptor, > 1e-05 M; at human EP3 receptor, > 1e-05 M. The EC50 in test [1] is < 0.1 µM. In addition, the “activity (EP2 part)” value in test [1] was “EP2 Agonist”.
In the case of `O=C(O)Cc1cccc(NC(=O)c2cccc(-c3cccc(F)c3)n2)c1` [Compound 113, (3-{[6-(3-Fluoro-phenyl)-pyridine-2-carbonyl]-amino}-phenyl)-acetic acid], the values for the Ki on human EP2 receptor, at human EP4 receptor and at human EP3 receptor were < 1e-07 M, > 1e-05 M and > 1e-05 M, respectively. Moreover, the EC50 in test [1] is < 0.1 µM. The “activity (EP2 part)” value in test [1] is on record as “EP2 Agonist”.
Take `O=C(O)/C=C/c1cccc(NC(=O)c2csc(-c3ccccc3)n2)c1` [Compound 115, 3-{3-[(2-Phenyl-thiazole-4-carbonyl)-amino]-phenyl}-acrylic acid]: the Ki at human EP2 receptor was < 1e-07 M; at human EP4 receptor, > 1e-05 M; at human EP3 receptor, > 1e-05 M. In addition, the EC50 in test [1] was < 0.1 µM. The “activity (EP2 part)” value in test [1] is on record as “EP2 Agonist”.
